What was measured:
intraocular pressure = test: Intraocular pressure change from baseline, Compound 1 BID at varying doses, 28 Day EOT (FIG. 1); format: in vivo, human; conditions: doses greater than 15 mg BID, patients with diabetic macular edema
Procedure: The difference in IOP was determined at the end of the trial, which was 28 days after treatment began (28 Day EOT). Changes in IOP were determined both in the study eye and the fellow eye.

[1] = Ocular abnormalities in the ocular pharmacokinetics study; format: in vivo, New Zealand White rabbits; conditions: all dose groups (topical ocular, subcutaneous, intravitreal)
Procedure: Pre-screening clinical ophthalmic exams were done prior to study (includes slit-lamp biomicroscopy and indirect ophthalmoscopy). Ocular findings were scored using the McDonald-Shadduck Score System, and only animals that scored zero in all categories were used in the study.
Concentration versus time data is plotted in FIGS. 3-16. All data are expressed as ng/g of the free drug. Samples that were below the limit of quantitation (0.2 ng/mL) were not used in the calculation of averages.

In the case of COC(=O)N[C@@H](Cc1ccccc1)C(=O)N[C@@H](Cc1ccc(NS(=O)(=O)O)cc1)c1csc(-c2cccs2)n1 [Compound 1], the “intraocular pressure (IOP) relative to pre-treatment baseline” value (intraocular pressure) is reported as “decreased IOP” and the ocular abnormalities [1] is reported as “No ocular abnormalities”.
